This is an account of results in patent US7714150B2, “Aminoalkyl-amidomethyl-substituted 2-(4-sulphonylamino)-3-hydroxy-3,4-dihydro-2H-chroman-6-yl derivatives” (Solvay Pharmaceuticals GmbH, priority 2005, dated 2010).

Molecules are shown by their SMILES.

T1 sequence (P22001 whole entry): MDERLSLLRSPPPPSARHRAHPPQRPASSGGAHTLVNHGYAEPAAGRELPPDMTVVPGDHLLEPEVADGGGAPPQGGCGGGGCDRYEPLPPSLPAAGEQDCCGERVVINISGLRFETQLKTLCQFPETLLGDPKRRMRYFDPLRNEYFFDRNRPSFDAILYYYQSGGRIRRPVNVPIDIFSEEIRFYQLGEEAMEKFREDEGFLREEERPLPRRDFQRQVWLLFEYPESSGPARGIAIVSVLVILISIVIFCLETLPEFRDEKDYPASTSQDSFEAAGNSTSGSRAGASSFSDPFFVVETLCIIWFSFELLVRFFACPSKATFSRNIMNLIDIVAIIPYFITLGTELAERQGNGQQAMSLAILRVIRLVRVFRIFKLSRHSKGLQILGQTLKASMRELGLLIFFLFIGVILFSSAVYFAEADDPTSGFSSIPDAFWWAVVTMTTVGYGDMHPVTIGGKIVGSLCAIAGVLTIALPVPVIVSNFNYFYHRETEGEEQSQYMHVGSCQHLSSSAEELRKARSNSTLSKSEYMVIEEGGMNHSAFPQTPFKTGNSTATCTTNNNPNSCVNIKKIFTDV

One assay addresses T1, Kv1.3-potassium channel (Homo sapiens, UniProt P22001).
T1 construct: expressed in transfected cells; host or cells: CHO (Chinese hamster ovary) cells, stably transfected with a Kv1.3 plasmid
Put plainly: Kv1.3-potassium channel-blocking effect in vitro (membrane potential-sensitive dye fluorescence in transfected CHO cells). It counts as cell-based. The note with it: 10 μM test substance; CHO cells transfected with Kv1.3; relative to margatoxin. The text has this: In this test model, known ovary cells of the Chinese hamster (=CHO) are used which are stably transfected with the Kv1.3-potassium channel The blockade of the cell-inherent Kv1.3-potassium channel activity in the transfected cells is accompanied by a positive shift in the membrane potential from approx. −40 mV to −30 mV, whereas in the wild-type CHO cells investigated in parallel no significant shift in the membrane potential is triggered. A change in the membrane potential is thus connected to the reduction in the Kv1.3-potassium channel activity. By blocking the Kv1.3-potassium channels e.g. with substances of Formula I and the resulting change in the membrane potential, an accumulation of a membrane potential-sensitive fluorescent dye in intracellular compartments of the ovary cells and ultimately increasing fluorescence occurs. The change in the membrane potential of the ovary cells is therefore measured indirectly via the increase in fluorescence of the membrane potential-sensitive dyes.
The cells were transfected with the Kv1.3 plasmid in known manner with a commercially obtainable transfection reagent (DMRIE-C from Gibco BRL, Germany). The successful transfection was verified by means of immunofluorescence and by “patch-clamp” investigations of the potassium ion current. The fluorescence measurements were performed on a Tecan Safire fluorescence reader from Tecan, Germany. In each case, the increase in the fluorescent intensity caused by the blockade of the Kv1.3-potassium channels in the ovary cells with substances of Formula I in a concentration of 10 μM was determined as characteristic variable. The increase in the fluorescent intensity was given in each case in percent (%) compared with an increase in the fluorescent intensity caused by the reference substance margatoxin. Margatoxin is known as a selective Kv1.3-potassium channel blocker (see e.g. M. Garcia-Calvo et al., J. Biol. Chem. 268 (1993) 18866-18874).
Turning to `COc1cccc(S(=O)(=O)N(CCC(C)C)[C@@H]2c3cc(CC(=O)NCC4CN(Cc5ccccc5)CCO4)ccc3OC(C)(C)[C@H]2O)c1` (stereo partly drawn) [Example 6], the “Increase in the fluorescent intensity (% margatoxin)” value (“Increase … (% margatoxin)” below) came to 59.9 % margatoxin.

For `CCCCN(CC)CCNC(=O)Cc1ccc2c(c1)[C@@H](N(CC(CC)CC)S(=O)(=O)c1ccc(I)cc1)[C@H](O)C(C)(C)O2` [Example 5, (3S, 4R)-N-[2-(Butylethylamino)Ethyl]-2-{4-[(2-Ethylbutyl)-(4-iodobenzenesulfonyl)Amino]-3-Hydroxy-2,2-dimethylchroman-6-yl)Acetamide], the “Increase … (% margatoxin)” value amounted to 39.8 % margatoxin.

On to `CCC(CC)CN([C@@H]1c2cc(CC(=O)N[C@@H]3CCN(Cc4ccccc4)C3)ccc2OC(C)(C)[C@H]1O)S(=O)(=O)c1cccc(OC)c1` [Example 4, (3S, 4R)-N-(1-Benzylpyrrolidin-3R-yl)-2-{4-[(2-Ethylbutyl)-(3-Methoxybenzenesulfonyl)Amino]-3 -Hydroxy-2,2-Dimethylchroman-6-yl}Acetamide], for which the “Increase … (% margatoxin)” value is 41.8 % margatoxin.

For another assay, the system named is left atrium of rats' hearts. In words: Functional refractory period prolongation on isolated left atria of rats' hearts in vitro. Also on record: species or system rat. The settings on record: 10 μM. The procedure:
In this test model it is determined to what extent the Kv1.5-blocking substances of Formula I result in a prolongation of the functional refractory period in the left atrium of rats. The refractory period is the minimum possible elapsed time between the basic stimulus and additional stimulus in which a renewed contraction can be triggered. The extent of the prolongation of the functional refractory period is a measurement of the antiarrhythmic effectiveness of the substances according to the invention. The functional refractory period is determined by testing on the electrically stimulated preparation at what elapsed time from the preceding contraction a renewed contraction can be triggered by additional electrical stimuli.
The hearts were removed from freshly sacrificed rats (Sprague-Dawley, Charles-River, Germany). The left atria were isolated and fastened to force transducers in a temperature-controlled (30° C.), gasified (O2 95%, CO2 5%) organ bath which was filled with modified Tyrode solution (all values in mM: NaCl 137; KCl 2.7; CaCl2 1.8; MgCl2 0.8; NaHCO3 11.9; NaH2PO4 0.6; glucose 5). In order to trigger regular contractions, the preparations were electrically stimulated (rectangular pulses, pulse magnitude 3.5× threshold stimulus, pulse width 1.5 ms, frequency 1 Hz). Initially, the initial value of the functional refractory period was determined by applying extra pulses in addition to the basic stimulus, the elapsed time from the preceding basic stimulus being shortened until no further additional contraction could be triggered. Then the cumulative addition of increasing concentrations (0.1-32 μM) of the substances of Formula I took place at intervals of 20 min. each, the refractory period being determined again in each case 18 min. after the addition had taken place. Before the measurement, stock solutions of the test substances (3.2 and 0.32 mM in 100% DMSO) were prepared. In order to achieve the desired final concentrations of the substances (0.1-32 μM) in the organ bath (volume 25 or 100 ml), corresponding volumes of these stock solutions were then poured into the organ bath.
In each case the prolongation of the functional refractory period (FRP) in the left atrium of the rats' hearts in milliseconds observed after the addition of 10 or 32 μM of the respective substance of Formula I to the atrial preparations was given as characteristic variable.
Regarding `Cc1ccc(S(=O)(=O)N(CC2CC2)[C@@H]2c3cc(CC(=O)N4CCN(Cc5ccccc5)CC4)ccc3OC(C)(C)[C@H]2O)cc1` [Example 7, (3S, 4R)-N-{6-[2-(4-Benzylpiperazin-1-yl)-2-Oxoethyl]-3-Hydroxy-2,2-Dimethylchroman-4-yl}-N-Cyclopropylmethyl-4-Methylbenzenesulfonamide], the FRP prolongation was 13 (10 μM) ms.

With `CC(C)CCN([C@@H]1c2cc(CC(=O)NCCN3CCCCC3)ccc2OC(C)(C)[C@H]1O)S(=O)(=O)c1ccc(I)cc1` [Example 3, (3S, 4R)-2-{3-Hydroxy-4-[(4-iodobenzenesulfonyl)-(3-methylbutyl)amino]-2,2-dimethylchroman-6-yl}-N-(2-piperidin-1-ylethyl)acetamide], the FRP prolongation is recorded as 15 (10 μM) ms.

As to `CCCc1ccc(S(=O)(=O)N[C@@H]2c3cc(CC(=O)N4CCN(Cc5ccccc5)CC4)ccc3OC(C)(C)[C@H]2O)cc1` [Example 1], the FRP prolongation is reported as 15 (10 μM) ms.

Turning to `CCc1ccc(S(=O)(=O)NC2c3cc(CC(=O)N4CCN(Cc5ccccc5)CC4)ccc3OC(C)(C)C2O)cc1` (stereo not drawn) [Example 10, N-{6-[2-(4-benzyl-piperazin-1-yl)-2-oxo-ethyl]-3-hydroxy-2,2-dimethyl-chroman-4-yl}-4-ethyl-benzenesulfonamide], the FRP prolongation is recorded as 24 (10 μM) ms.

Staying with this assay, now noted: 32 μM.
Take `COc1cccc(S(=O)(=O)N(CCC(C)C)[C@@H]2c3cc(CC(=O)NCC4CN(Cc5ccccc5)CCO4)ccc3OC(C)(C)[C@H]2O)c1` (stereo partly drawn) [Example 6]: the FRP prolongation was 16 (32 μM) ms.

As to `CCc1ccc(S(=O)(=O)N[C@@H]2c3cc(CC(=O)N4CCN(Cc5cccnc5)CC4)ccc3OC(C)(C)[C@H]2O)cc1` [Example 8, 4-Ethyl-N-((3S,4R)-3-Hydroxy-2,2-Dimethyl-6-{2-Oxo-2-[4-(pyridin-3-ylmethyl)piperazin-1-yl]ethyl}-3,4-dihydro-2H-Chromen-4-yl)Benzenesulfonamide], the FRP prolongation was 22 (32 μM) ms.
